Test results: patent publication US20260159465A1, “METHODS OF MAKING AND USING 1-METHYLEFFUSOL” (Laboratory for Synthetic Chemistry and Chemical Biology …, priority 2024, published 2026)

How the values were obtained:
MC3T3-E1 osteoblasts [1] = assay: Promotion of osteoblast mineralization: calcium deposition by Alizarin Red staining; type: cell-based; conditions: 1.5 or 5 mM in osteoblast mineralization medium (OM), 14 days
Procedure: Cells were treated with 1-Methyleffusol (1.5 or 5 mM) in osteoblast mineralization medium (OM) for 14 days, and the calcium deposition in the cell layer was measured by Alizarin Red staining (images not shown).

MC3T3-E1 osteoblasts [2] = assay: Stimulation of alkaline phosphatase (ALP) activity as a marker of bone forming activity; type: cell-based; conditions: 0.5 μM and 1.5 μM, 4 days; ASC+b-GP as positive control
Procedure: Cells were treated with 0.5 μM and 1.5 μM concentrations of 1-Methyleffusol for 4 days and the alkaline phosphatase (ALP) activity, as a marker of bone forming activity, was measured. Ascorbate and beta-glycerophosphate treatment (ASC+b-GP) was performed as positive control for ALP induction.

bone forming activities = conditions: prior studies (U.S. application Ser. No. 17/713,384; Chinese Application No. 202210551690.4); cited from earlier work

For C=Cc1cc(O)c(C)c2c1-c1ccc(O)c(C)c1CC2 [1-Methyleffusol, 1,8-dimethyl-4-vinyl-9,10-dihydrophenanthrene-2,7-diol], the “mineralization (calcium deposition in the cell layer, Alizarin Red staining)” value (MC3T3-E1 osteoblasts [1]) is given as “promoted mineralization”, the “alkaline phosphatase (ALP) activity” value (MC3T3-E1 osteoblasts [2]) is given as “stimulate ALP activity” and the “stimulation of bone forming activities” value (bone forming activities) is given as “exhibited the ability for stimulation of bone forming activities”.
